Measured values from ChEMBL document CHEMBL3638598, “Pyrazolo pyrimidine derivatives” (2014).

target: G-prodeshotein coupled receptor 4 (Homo sapiens, UniProt P46093); assay: Radio Ligand Binding Assay: Serial dilutions of compounds (stock in 10 mM DMSO) are prepared by first diluting the compounds in DMSO followed by a 1:50 dilution into assay buffer (10 mM HEPES, pH 8.0, 100 mM NaCl, 5 mM MgCl2, 1 mM CaCl2, 0.5% fatty acid-free BSA, 0.05% Tween-20). […] The desired amount of membranes (20 μg/well) is diluted with assay buffer. […] 100 μL of the membrane-suspension is added and the plate stirred for 60 minutes.
Sequence (P46093 whole entry): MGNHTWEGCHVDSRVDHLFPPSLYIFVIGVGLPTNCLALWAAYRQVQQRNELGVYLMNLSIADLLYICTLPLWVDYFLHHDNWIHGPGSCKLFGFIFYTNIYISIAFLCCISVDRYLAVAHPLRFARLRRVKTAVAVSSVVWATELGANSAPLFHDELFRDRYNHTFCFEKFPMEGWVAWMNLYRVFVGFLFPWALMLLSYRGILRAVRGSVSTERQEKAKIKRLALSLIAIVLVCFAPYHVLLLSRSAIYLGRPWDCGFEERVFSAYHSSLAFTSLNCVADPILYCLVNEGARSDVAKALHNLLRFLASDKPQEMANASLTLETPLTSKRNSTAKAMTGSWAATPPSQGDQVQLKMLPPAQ

**Q.** How did the IC50 turn out when `CCc1nn2c(C)cc(C)nc2c1Cc1ccc(OC[C@H]2CC[C@@H](N)CC2)cc1` was run?
**A.** The IC50 was 35 nM.

**Q.** For `CCc1nn2c(C)cc(C)nc2c1Cc1ccc(OCC2CCNCC2)cc1`, which IC50 is on record?
**A.** Its IC50 is 22 nM.

**Q.** With `CCc1nn2c(C)cc(C)nc2c1Cc1ccc(OC[C@H]2CC[C@@H](NC(=O)[C@H]3NCC[C@H]3O)CC2)cc1` as the compound, how does the IC50 read?
**A.** The IC50 was 54 nM.
